In US12344595B2, “2-amino-n-phenyl-nicotinamides as NAV1.8 inhibitors” (Merck Sharp & Dohme LLC, priority 2018, dated 2025):

Biological target: human Nav1.8 (Homo sapiens (Human), UniProt Q9Y5Y9)
Experiment: Nav1.8 Qube automated patch-clamp assay
Type: cell-based
Details: Nav1.8 Qube Assay; human Nav1.8 channels stably expressed in HEK 293 cells
Method in brief: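 Whole-cell automated patch clamp was run at room temperature on HEK293 cells stably expressing the channel. A 1 Hz, 10 s train of 20 ms pulses to 10 mV from −90 mV (repolarizing to −67 mV) was applied. Peak currents at the 1st and 10th pulses gave resting and inactivated-state IC50 values by Hill fit.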

Chain of human Nav1.8 (Q9Y5Y9 whole entry): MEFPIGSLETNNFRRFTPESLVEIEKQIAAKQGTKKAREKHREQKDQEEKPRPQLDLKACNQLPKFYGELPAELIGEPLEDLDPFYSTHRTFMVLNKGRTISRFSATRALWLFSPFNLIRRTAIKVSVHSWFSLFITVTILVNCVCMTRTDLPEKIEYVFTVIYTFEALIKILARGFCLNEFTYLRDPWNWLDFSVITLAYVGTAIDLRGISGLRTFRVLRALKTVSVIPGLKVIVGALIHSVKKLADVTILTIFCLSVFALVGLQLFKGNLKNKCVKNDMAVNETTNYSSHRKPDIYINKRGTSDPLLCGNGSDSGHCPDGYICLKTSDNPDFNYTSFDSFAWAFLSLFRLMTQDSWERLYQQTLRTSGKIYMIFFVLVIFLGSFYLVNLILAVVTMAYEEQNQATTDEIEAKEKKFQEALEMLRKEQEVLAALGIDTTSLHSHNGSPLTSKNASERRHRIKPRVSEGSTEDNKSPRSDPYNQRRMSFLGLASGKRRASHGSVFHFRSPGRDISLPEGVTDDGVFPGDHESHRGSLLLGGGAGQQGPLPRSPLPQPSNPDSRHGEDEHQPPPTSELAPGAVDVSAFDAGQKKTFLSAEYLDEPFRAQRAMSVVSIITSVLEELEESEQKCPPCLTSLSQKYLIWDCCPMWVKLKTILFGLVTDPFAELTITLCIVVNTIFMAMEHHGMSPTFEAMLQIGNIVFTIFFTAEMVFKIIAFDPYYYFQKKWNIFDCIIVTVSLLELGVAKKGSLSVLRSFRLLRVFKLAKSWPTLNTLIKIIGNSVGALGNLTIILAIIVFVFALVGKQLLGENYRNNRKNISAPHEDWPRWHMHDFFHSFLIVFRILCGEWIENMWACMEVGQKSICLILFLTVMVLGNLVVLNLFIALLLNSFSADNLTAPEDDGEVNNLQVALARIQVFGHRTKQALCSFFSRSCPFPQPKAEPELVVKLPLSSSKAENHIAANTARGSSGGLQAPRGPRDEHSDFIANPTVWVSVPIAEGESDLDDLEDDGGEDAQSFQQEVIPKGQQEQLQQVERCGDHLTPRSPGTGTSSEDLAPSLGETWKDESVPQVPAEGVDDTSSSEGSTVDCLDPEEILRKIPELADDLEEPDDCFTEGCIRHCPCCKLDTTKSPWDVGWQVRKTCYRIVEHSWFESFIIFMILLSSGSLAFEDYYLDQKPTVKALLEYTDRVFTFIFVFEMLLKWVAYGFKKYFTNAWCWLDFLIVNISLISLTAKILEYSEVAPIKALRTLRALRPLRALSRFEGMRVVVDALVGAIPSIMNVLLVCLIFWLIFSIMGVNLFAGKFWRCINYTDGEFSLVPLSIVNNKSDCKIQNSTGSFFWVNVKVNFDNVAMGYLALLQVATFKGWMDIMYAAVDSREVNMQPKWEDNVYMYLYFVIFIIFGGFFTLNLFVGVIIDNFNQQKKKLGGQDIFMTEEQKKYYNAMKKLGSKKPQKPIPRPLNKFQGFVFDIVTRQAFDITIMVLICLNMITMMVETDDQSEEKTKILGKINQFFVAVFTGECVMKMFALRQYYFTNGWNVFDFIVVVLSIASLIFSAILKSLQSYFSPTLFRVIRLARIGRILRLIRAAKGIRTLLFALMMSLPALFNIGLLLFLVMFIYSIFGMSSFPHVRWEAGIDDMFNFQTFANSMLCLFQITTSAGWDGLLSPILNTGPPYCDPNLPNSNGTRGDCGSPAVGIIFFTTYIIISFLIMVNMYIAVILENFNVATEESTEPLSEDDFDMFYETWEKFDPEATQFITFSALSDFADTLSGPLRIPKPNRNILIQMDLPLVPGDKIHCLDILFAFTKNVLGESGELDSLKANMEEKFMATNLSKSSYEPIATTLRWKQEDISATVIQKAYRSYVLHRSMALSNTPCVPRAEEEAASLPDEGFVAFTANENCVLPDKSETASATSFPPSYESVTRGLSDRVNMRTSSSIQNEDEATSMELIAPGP

Q: Which IC50 does the source give for `COc1nc(N2CCCCCC2)c(C(=O)Nc2cccc(S(N)(=O)=O)c2)cc1C(F)(F)F` [Example 169, 2-(azepan-1-yl)-6-methoxy-N-(3-sulfamoylphenyl)-5-(trifluoromethyl)nicotinamide] here?
A: 42 nM

Q: With `NS(=O)(=O)c1cccc(NC(=O)c2cc(C(F)(F)F)cnc2N2CC3COC(C3)C2)c1` (stereo not drawn) [Example 64, 2-(6-oxa-3-azabicyclo[3.2.1]octan-3-yl)-N-(3-sulfamoyl-phenyl)-5-(trifluoro-methyl)pyridine-3-carboxamide] as the molecule, how does the IC50 read?
A: 2160 nM

Q: Which IC50 does the source give for `NC(=O)c1cccc(NC(=O)c2cc(Cl)cnc2N2CCCC(F)(F)CC2)c1` [Example 15, N-(3-carbamoyl-phenyl)-5-chloro-2-(4,4-difluoroazepan-1-yl)pyridine-3-carboxamide] here?
A: 19 nM

Q: Which IC50 does the source give for `CS(=O)(=O)c1cccc(NC(=O)c2ccc(C(F)(F)F)nc2N2CCCCCC2)c1` [Example 82, 2-(azepan-1-yl)-N-(3-(methylsulfonyl)phenyl)-6-(trifluoro-methyl)nicotinamide] here?
A: 60 nM

Q: With `CS(=O)(=O)c1cccc(NC(=O)c2cc(C(F)(F)F)cnc2N2CCC3OCCC32)c1` (stereo not drawn) [Example 104, 2-(2,3,3a,5,6,6a-hexahydrofuro[3,2-b]pyrrol-4-yl)-N-(3-methylsulfonylphenyl)-5-(trifluoromethyl) pyridine-3-carboxamide] as the molecule, how does the IC50 read?
A: 7330 nM

Q: With `Cc1c(F)c(Cl)nc(N2CCCCCC2)c1C(=O)Nc1cccc(S(N)(=O)=O)c1` [Example 3, 2-(azepan-1-yl)-6-chloro-5-fluoro-4-methyl-N-(3-sulfamoyl-phenyl)pyridine-3-carboxamide] as the molecule, how does the IC50 read?
A: 7.6 nM

Q: For `NS(=O)(=O)c1cccc(NC(=O)c2cc(C3CCC3)cnc2N2CCCC(F)(F)CC2)c1` [Example 159, 5-cyclobutyl-2-(4,4-difluoroazepan-1-yl)-N-(3-sulfamoylphenyl)nicotinamide], which IC50 is on record?
A: 2.5 nM

Q: `NS(=O)(=O)c1cccc(NC(=O)c2cc(C(F)(F)F)cnc2N2CC3CC(F)(F)C3C2)c1` (single isomer, unassigned) [Example 135, 2-[(1S,5R or 1R,5S)-6,6-difluoro-3-azabicyclo[3.2.0]heptan-3-yl]-N-(3-sulfamoyl-phenyl)-5-(trifluoro-methyl)pyridine-3-carboxamide] was tested. Which IC50 did it give?
A: 37 nM

Q: `NS(=O)(=O)c1cccc(NC(=O)c2cc(C(F)(F)F)cnc2N2CC3CCC(C2)O3)c1` [Example 52, 2-(8-oxa-3-azabicyclo[3.2.1]octan-3-yl)-N-(3-sulfamoyl-phenyl)-5-(trifluoro-methyl)pyridine-3-carboxamide] was tested. Which IC50 did it give?
A: 301 nM
